Values quoted from earlier work, collected in patent publication US20150290272A1, “PHARMACEUTICAL COMPOSITION FOR PREVENTING/TREATING BRAIN INJURY AND ENHANCING RECOVERY OF SEQUELAE AND MANUFACTURE THEREOF” (PhytoHealth Corporation, priority 2014, published 2015).

System: acute ischemic stroke

For “rtPA: thrombolysis agent recombinant tissue plasminogen activator (rt-PA) (Actilyse) for acute ischemic stroke”, which “increase in the number of people living without disability” value (at three to six months, 2014 review) is on record?
The value was 5%.

What about the “overall benefit with respect to living without disability” value (given within three hours of symptom onset) of the same substance?
The value was 10%.

What about the “increased risk of death” value (in the short term, 2014 review) of the same substance?
The value was 2%.

What about the “people with large strokes who developed substantial brain hemorrhage as a complication” value (in vivo) of the same substance?
Its value is 6.4%.
